15 molecules from patent US9238619B2, “Phenalkylamine derivatives, pharmaceutical compositions containing them, and their use in therapy” (AbbVie Deutschland GmbH & Co. KG, priority 2010, dated 2016) can be followed below.

A value given as a limit tells only on which side of the number the result lay.

Sequence of human GlyT1c transporter (P48067 whole entry): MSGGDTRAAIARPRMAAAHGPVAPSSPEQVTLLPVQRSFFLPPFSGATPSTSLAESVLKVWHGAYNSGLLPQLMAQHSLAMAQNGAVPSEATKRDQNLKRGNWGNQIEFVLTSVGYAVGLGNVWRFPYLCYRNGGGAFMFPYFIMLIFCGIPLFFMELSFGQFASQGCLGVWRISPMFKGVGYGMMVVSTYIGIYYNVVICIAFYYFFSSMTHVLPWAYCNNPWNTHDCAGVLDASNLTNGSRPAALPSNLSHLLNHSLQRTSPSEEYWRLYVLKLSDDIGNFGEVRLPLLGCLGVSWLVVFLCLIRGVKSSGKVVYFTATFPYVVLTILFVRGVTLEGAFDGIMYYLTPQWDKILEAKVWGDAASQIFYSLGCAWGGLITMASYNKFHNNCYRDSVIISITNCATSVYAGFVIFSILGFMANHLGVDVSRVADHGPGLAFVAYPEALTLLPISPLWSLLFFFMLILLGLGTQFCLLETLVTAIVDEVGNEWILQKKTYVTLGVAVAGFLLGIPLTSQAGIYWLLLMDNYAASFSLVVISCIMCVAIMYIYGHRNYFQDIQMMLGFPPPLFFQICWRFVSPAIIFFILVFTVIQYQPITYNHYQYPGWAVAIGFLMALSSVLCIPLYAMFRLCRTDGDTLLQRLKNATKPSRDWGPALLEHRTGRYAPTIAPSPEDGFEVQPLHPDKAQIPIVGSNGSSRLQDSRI

The target of the assay is human GlyT1c transporter (Homo sapiens (Human), UniProt P48067). The assay is described as follows: Radioligand binding assays using recombinant CHO cell membranes expressing human GlyT1. As to conditions: read-out: radioligand binding Kiapp. The protocol:
Radioligand binding to human GlyT1c transporter-expressing membranes was determined as described in Mezler et al., Molecular Pharmacology 74:1705-1715, 2008.
For the molecule `CN1CCCC(Cc2ccccc2)(c2cccc(OCCNS(=O)(=O)c3cnn(C)c3)c2)C1` (stereo not drawn) [Example 63, 1-Methyl-1H-pyrazole-4-sulfonic acid {2-[3-(3-benzyl-1-methyl-piperidin-3-yl)phenoxy]-ethyl}-amide], the Ki is not above 100 nM.
Under `CN1CCCC(Cc2ccccc2)(c2cccc(OCCNS(=O)(=O)CC3CC3)c2)C1` (stereo not drawn) [Example 64, N-{2-[3-(3-Benzyl-1-methyl-piperidin-3-yl)-phenoxy]-ethyl}-C-cyclopropyl-methanesulfonamide] stands not above 10000 nM; under `Cn1cc(S(=O)(=O)NCc2cccc(C3(Cc4ccccc4)CNC(=O)C3)c2)cn1` (stereo not drawn) [Example 66, 1-Methyl-1H-pyrazole-4-sulfonic acid 3-(3-benzyl-5-oxo-pyrrolidin-3-yl)benzylamide], not above 10000 nM; under `Cn1cc(S(=O)(=O)NCc2cccc(C3(Cc4ccccc4)CCNC3)c2)cn1` (stereo not drawn) [Example 67, 1-Methyl-1H-pyrazole-4-sulfonic acid 3-(3-benzyl-pyrrolidin-3-yl)benzylamide], not above 100 nM.
For `O=S(=O)(CC1CC1)NCc1cccc(C2(Cc3ccccc3)CCNC2)c1` (stereo not drawn) [Example 68, N-[3-(3-Benzyl-pyrrolidin-3-yl)-benzyl]-C-cyclopropyl-methanesulfonamide], the Ki is not above 1000 nM.
Turning to `CN1CCC(Cc2ccccc2)(c2cccc(CNS(=O)(=O)c3cnn(C)c3)c2)C1` (stereo not drawn) [Example 69, 1-Methyl-1H-pyrazole-4-sulfonic acid 3-(3-benzyl-1-methyl-pyrrolidin-3-yl)-benzylamide], the Ki was not above 1000 nM.
Under `CN1CCC(Cc2ccccc2)(c2cccc(OCCNS(=O)(=O)c3cn(C)cn3)c2)C1` (stereo not drawn) [Example 70, 1-Methyl-1H-imidazole-4-sulfonic acid {2-[3-(3-benzyl-1-methyl-pyrrolidin-3-yl)-phenoxy]-ethyl}-amide] stands not above 100 nM; under `Cn1cnc(S(=O)(=O)NCCOc2cccc(C3(Cc4ccccc4)CCN(C(=O)C(F)F)C3)c2)c1` (stereo not drawn) [Example 71, 1-Methyl-1H-imidazole-4-sulfonic acid (2-{3-[3-benzyl-1-(2,2-difluoro-acetyl)pyrrolidin-3-yl]-phenoxy}-ethyl)-amide], not above 1000 nM.
On to `Cn1cnc(S(=O)(=O)NCCOc2cccc(C3(Cc4ccccc4)CN(CCF)C3)c2)c1` [Example 72, 1-Methyl-1H-imidazole-4-sulfonic acid (2-{3-[3-benzyl-1-(2-fluoro-ethyl)azetidin-3-yl]-phenoxy}-ethyl)-amide], for which the Ki was not above 100 nM.
Under `COCCN1CC(Cc2ccccc2)(c2cccc(OCCNS(=O)(=O)c3cn(C)cn3)c2)C1` [Example 73, 1-Methyl-1H-imidazole-4-sulfonic acid (2-{3-[3-benzyl-1-(2-methoxy-ethyl)azetidin-3-yl]-phenoxy}-ethyl)-amide] stands not above 100 nM; under `CN1CCC(Cc2ccccc2)(c2cccc(OCCN(C)S(=O)(=O)c3cn(C)cn3)c2)C1` (stereo not drawn) [Example 74, 1-Methyl-1H-imidazole-4-sulfonic acid {2-[3-(3-benzyl-1-methyl-pyrrolidin-3-yl)-phenoxy]-ethyl}-methyl-amide], not above 1000 nM.
Under `Cn1cnc(S(=O)(=O)NCCOc2cccc(C3(Cc4ccccc4)CCN(CCF)C3)c2)c1` (stereo not drawn) [Example 75] stands not above 100 nM; under `Cn1cnc(S(=O)(=O)NCCOc2cccc(C3(Cc4ccccc4)CCN(CC(C)(C)C)C3)c2)c1` (stereo not drawn) [Example 76, 1-Methyl-1H-imidazole-4-sulfonic acid (2-{3-[3-benzyl-1-(2,2-dimethylpropyl)-pyrrolidin-3-yl]-phenoxy}-ethyl)-amide], not above 100 nM; under `CC(C)N1CCC(Cc2ccccc2)(c2cccc(OCCNS(=O)(=O)c3cn(C)cn3)c2)C1` (stereo not drawn) [Example 77, 1-Methyl-1H-imidazole-4-sulfonic acid {2-[3-(3-benzyl-1-isopropyl-pyrrolidin-3-yl)-phenoxy]-ethyl}-amide], not above 1000 nM.
Under `CN1CC(Cc2ccccc2)(c2cccc(OCCNS(=O)(=O)c3cn(C)cn3)c2)C1` [Example 78, 1-Methyl-1H-imidazole-4-sulfonic acid {2-[3-(3-benzyl-1-methyl-azetidin-3-yl)phenoxy]-ethyl}-amide] stands not above 100 nM.
